{"source": "patent US9464106B2", "about": "“Oligonucleotides useful for detecting and analyzing nucleic acids of interest” (Exiqon A/S, priority 2002, dated 2016)", "note": "l = locked nucleic acid (LNA); [5mC] = 5-methylcytosine; d = 2'-deoxy (DNA)"}
{"test_system": "yeast HSP78 (YDR258C) sequence", "assay": "Duplex melting temperatures of HSP78 25-mer capture probes (UV spectrophotometer)", "settings": "25-mer capture probe duplex with complementary target; design PM = perfectly matched, MM = single mismatch; DNA, LNA_T (T) or LNA_TC (TC) substituted", "units": {"Average duplex melting temp.": "°C"}}
{"substance": "12680 (DNA ACCATCATCACCGAACTTTGTGTCG; DNA, backbone not given here) [compound 12680]", "Average duplex melting temp.": 63.6}
{"substance": "12681 (DNA CAATGATCGTGTAACGGAAATCAAC; DNA, backbone not given here) [compound 12681]", "Average duplex melting temp.": 59.3}
{"substance": "12682 (DNA TGGCCTAGGGAAACGGTCAGCTTAC; DNA, backbone not given here) [compound 12682]", "Average duplex melting temp.": 65.2}
{"substance": "12683 (DNA TTGGAAACATCGCGGTGCGCTTTTT; DNA, backbone not given here) [compound 12683]", "Average duplex melting temp.": 61.5}
{"substance": "12684 (DNA GAAACATCGGGGAGCGCTTTTTCAA; DNA, backbone not given here) [compound 12684]", "Average duplex melting temp.": 63.8}
{"substance": "12685 (DNA GACAGCCTCAGTAAATTGGCCACCA; DNA, backbone not given here) [compound 12685]", "Average duplex melting temp.": 64.8}
{"substance": "12686 (DNA CCGATTAAACGACAGACAGTATGCT; DNA, backbone not given here) [compound 12686]", "Average duplex melting temp.": 57.1}
{"substance": "12687 (DNA ATCAAATAGGAAATCAGCTAAAGCC; DNA, backbone not given here) [compound 12687]", "Average duplex melting temp.": 54.3}
{"substance": "12688 (DNA GACCTAAGAACAAAAAGCTGGCAAT; DNA, backbone not given here) [compound 12688]", "Average duplex melting temp.": 58.2}
{"substance": "12689 (DNA AAATAGCAGCAAAGGCCTCGTCTTG; DNA, backbone not given here) [compound 12689]", "Average duplex melting temp.": 64}
{"substance": "12690 (DNA ATAGCAGCAATGCCCTCGTCTTGGC; DNA, backbone not given here) [compound 12690]", "Average duplex melting temp.": 62.9}
{"substance": "12691 (DNA GCAATGGCCTCGACTTGGCCAACGA; DNA, backbone not given here) [compound 12691]", "Average duplex melting temp.": 68.5}
{"substance": "12692 (DNA GATGAACTCAGGAGGATAGGATCTT; DNA, backbone not given here) [compound 12692]", "Average duplex melting temp.": 58.2}
{"substance": "12693 (DNA TCAGTTAGCCAAACCTTCGCTTCAT; DNA, backbone not given here) [compound 12693]", "Average duplex melting temp.": 61.4}
{"substance": "12694 (DNA GTTGCCATGGAGATCAAAATCTGTC; DNA, backbone not given here) [compound 12694]", "Average duplex melting temp.": 60}
{"substance": "12695 (DNA AGACGTACAGCAACAGAAATAGCAG; DNA, backbone not given here) [compound 12695]", "Average duplex melting temp.": 61.2}
{"substance": "12696 (DNA TTTGGTAGCACGTCAAGCTTAGTAT; DNA, backbone not given here) [compound 12696]", "Average duplex melting temp.": 59.2}
{"substance": "12697 (DNA ATAAAGCTGGCATTAGGTCTCTTTT; DNA, backbone not given here) [compound 12697]", "Average duplex melting temp.": 58.4}
{"substance": "12698 (DNA TTTTTCGGCCAATCGATCTTGAATT; DNA, backbone not given here) [compound 12698]", "Average duplex melting temp.": 58.8}
{"substance": "12699 (DNA CACTCTAACAGTATCGCCGTTTCTA; DNA, backbone not given here) [compound 12699]", "Average duplex melting temp.": 61.1}
{"substance": "12700 (DNA TCAATGGCCTTGGACCATATAATTG; DNA, backbone not given here) [compound 12700]", "Average duplex melting temp.": 59.5}
{"substance": "12701 (DNA AAAACGACAGCAAAAGGCTTTCTTC; DNA, backbone not given here) [compound 12701]", "Average duplex melting temp.": 58.8}
{"substance": "12702 (DNA ATTGACCTCAAATCTTTCTTGGATA; DNA, backbone not given here) [compound 12702]", "Average duplex melting temp.": 54.5}
{"substance": "12703 (DNA CCCAACTTTGTGACGTTTAATAAAA; DNA, backbone not given here) [compound 12703]", "Average duplex melting temp.": 56.2}
{"substance": "12704 (DNA ACCATCATCACCGAACTTTGTGTCG; DNA at ACG, LNA at T, backbone not given here) [compound 12704]", "Average duplex melting temp.": 74}
{"substance": "12705 (DNA CAATGATCGTGTAACGGAAATCAAC; sugars from the 5' end dddlddlddlddddddddddldddd, backbone not given here) [compound 12705]", "Average duplex melting temp.": 65.2}
{"substance": "12706 (DNA TGGCCTAGGGAAACGGTCAGCTTAC; DNA at ACG, LNA at T, backbone not given here) [compound 12706]", "Average duplex melting temp.": 71.6}
{"substance": "12707 (DNA TTGGAAACATCGCGGTGCGCTTTTT; sugars from the 5' end lldddddddldddddlddddlllld, backbone not given here) [compound 12707]", "Average duplex melting temp.": 68.6}
{"substance": "12708 (DNA GAAACATCGGGGAGCGCTTTTTCAA; sugars from the 5' end d6 l1 d10 l5 d3, backbone not given here) [compound 12708]", "Average duplex melting temp.": 69.9}
{"substance": "12709 (DNA GACAGCCTCAGTAAATTGGCCACCA; sugars from the 5' end d7 l1 d7 l2 d8, backbone not given here) [compound 12709]", "Average duplex melting temp.": 68.8}
{"substance": "12710 (DNA CCGATTAAACGACAGACAGTATGCT; sugars from the 5' end ddddlldddddddddddddldlddd, backbone not given here) [compound 12710]", "Average duplex melting temp.": 63.5}
{"substance": "12711 (DNA ATCAAATAGGAAATCAGCTAAAGCC; sugars from the 5' end dlddddldddddddddddldddddd, backbone not given here) [compound 12711]", "Average duplex melting temp.": 58.1}
{"substance": "12712 (DNA GACCTAAGAACAAAAAGCTGGCAAT; sugars from the 5' end d4 l1 d13 l1 d6, backbone not given here) [compound 12712]", "Average duplex melting temp.": 61.1}
{"substance": "12713 (DNA AAATAGCAGCAAAGGCCTCGTCTTG; DNA at ACG, LNA at T, backbone not given here) [compound 12713]", "Average duplex melting temp.": 70.4}
{"substance": "12714 (DNA ATAGCAGCAATGCCCTCGTCTTGGC; DNA at ACG, LNA at T, backbone not given here) [compound 12714]", "Average duplex melting temp.": 71.3}
{"substance": "12715 (DNA GCAATGGCCTCGACTTGGCCAACGA; DNA at ACG, LNA at T, backbone not given here) [compound 12715]", "Average duplex melting temp.": 73.7}
{"substance": "12716 (DNA GATGAACTCAGGAGGATAGGATCTT; sugars from the 5' end ddlddddlddddddddlddddldld, backbone not given here) [compound 12716]", "Average duplex melting temp.": 64.9}
{"substance": "12717 (DNA TCAGTTAGCCAAACCTTCGCTTCAT; sugars from the 5' end ldddlldddddddddlldddllddd, backbone not given here) [compound 12717]", "Average duplex melting temp.": 69.4}
{"substance": "12718 (DNA GTTGCCATGGAGATCAAAATCTGTC; sugars from the 5' end dllddddldddddddddddldldld, backbone not given here) [compound 12718]", "Average duplex melting temp.": 69.2}
{"substance": "12719 (DNA AGACGTACAGCAACAGAAATAGCAG; sugars from the 5' end d5 l1 d13 l1 d5, backbone not given here) [compound 12719]", "Average duplex melting temp.": 65}
{"substance": "12720 (DNA TTTGGTAGCACGTCAAGCTTAGTAT; sugars from the 5' end lllddlddddddddddddllddldd, backbone not given here) [compound 12720]", "Average duplex melting temp.": 68.6}
{"substance": "12721 (DNA ATAAAGCTGGCAAAAGGTCTCTTTT; sugars from the 5' end dldddddldddddddddldldllld, backbone not given here) [compound 12721]", "Average duplex melting temp.": 67.2}
{"substance": "12722 (DNA TTTTTCGGCCAATCGATCTTGAATT; sugars from the 5' end ldllldddddddddddldlldddld, backbone not given here) [compound 12722]", "Average duplex melting temp.": 65.9}
{"substance": "12723 (DNA CACTCTAACAGTATCGCCGTTTCTA; sugars from the 5' end dddldldddddddddddddllldld, backbone not given here) [compound 12723]", "Average duplex melting temp.": 69.7}
{"substance": "12724 (DNA TCAATGGCCTTGGACCATATAATTG; DNA at ACG, LNA at T, backbone not given here) [compound 12724]", "Average duplex melting temp.": 69.7}
{"substance": "12725 (DNA AAAACGACAGCAAAAGGCTTTCTTC; sugars from the 5' end d18 l3 d1 l2 d1, backbone not given here) [compound 12725]", "Average duplex melting temp.": 65.9}
{"substance": "12726 (DNA ATTGACCTCAAATCTTTCTTGGATA; sugars from the 5' end dllddddlddddddllldlldddld, backbone not given here) [compound 12726]", "Average duplex melting temp.": 65.1}
{"substance": "12727 (DNA CCCAACTTTGTGACGTTTAATAAAA; DNA at ACG, LNA at T, backbone not given here) [compound 12727]", "Average duplex melting temp.": 66.5}
{"substance": "12728 (DNA ACCATCATCACCCAACCTTGTGTCG; sugars from the 5' end dlddlddldddddddddlddlddld, [5mC] at 2, 24, backbone not given here) [compound 12728]", "Average duplex melting temp.": 70.2}
{"substance": "12729 (DNA CAATGATCGTGTTACGGAAATCAAC; sugars from the 5' end lddlddlldlddddldddddllddd, [5mC] at 1, 8, 15, 22, backbone not given here; further chemistry not fully specified) [compound 12729]", "Average duplex melting temp.": 75.5}
{"substance": "12730 (DNA TGGCCTAGGGAAACGGTCAGCTTAC; sugars from the 5' end lddldlddddddddddldddldldd, [5mC] at 4, 21, backbone not given here) [compound 12730]", "Average duplex melting temp.": 75.5}
